Consider 3 compounds from US5530157A, “Anti-inflammatory benzoic acid derivatives” (Scios Nova Inc., priority 1995, dated 1996).

Where two headings read alike, the source gives them in different places. Where only a bound is given, the exact number is not on record here.

Assay [1] concerns neutrophils. Put plainly: Superoxide production by PMN, PAF. The conditions noted are these: Homo sapiens, Neutrophil; PAF 20 nM, TNF preincubation; read-out: IC50 to inhibit superoxide production, PAF/O2. The format is cell-based. An excerpt:
(§1) Several in vitro assays were employed to determine the ability of compounds of the invention to function as anti-inflammatory agents. One group of assays measured the ability of the compounds to inhibit adherence of polymorphonuclear neutrophils to serum coated wells (in the presence of either TNF-α or PAF) or to human umbilical vein endothelial cells (in the presence of INF-γ). Another group of assays measured the ability of the compounds to inhibit the release of elastase or superoxide from activated neutrophils. These assays were performed in the following manner.
Superoxide production. Superoxide production by PMN was measured as the superoxide dismutase (SOD)-inhibitable reduction of ferricytochrome c. […] Therefore, subsequent experiments were performed in the presence of cytochrome c only. In all cases, experiments were carried out in 96 well plates. Before the addition of cells, plates were coated by incubating each well with 200 μl of 10% human serum for 1 h in 37° C. Plates were then washed several times with PBS containing 10 mM CaCl2 and MgCl2. Neutrophils, resuspended in Hank's balanced salt solution (HBSS) to a final concentration of 4×10^6 cells/ml, were preincubated with TNF (10 ng/ml) for 10 min at 37° C. in the presence of cytochrome c (75 μm). Experiments were then performed with 100 μl of this cell suspension added to each well, followed by the addition of 10 μl of an aqueous dilution of test compound (50 nm-[…]). Immediately after the addition of test compound, a 10 μl aliquot of activators (fMLP, 300 nM; PAF, 20 nM; C5a, 5 μg/ml) was added to each well. Plates were immediately transferred to a preheated Thermomax kinetic microplate reader and the change in absorbance at […] was recorded over a 3 min period.

For assay [2], the system named is polymorphonuclear neutrophils. Put plainly: Adherence of PMN to serum coated wells, PAF. To be noted: Homo sapiens, Polymorphonuclear neutrophil, 10 min, PAF 1 μM, read-out: IC50 to inhibit adhesion, PAF serum. The format is cell-based.
Description: as §1
Isolation of PMN: Blood was drawn into syringes containing heparin (1 U/mL), from human volunteers (free of any medication for at least 48 hrs). 30 mL of blood was layered over a gradient of 10 mL 1.077 g/mL Histpaque (Sigma, St. Louis, Mo.), and centrifuged at room temperature, 400×g for 20 min. All subsequent manipulations were carried out at room temperature, with endotoxin free reagents, and using polypropylene pipettes and tubes, to prevent activation of the PMN. The pinkish PMN layer immediately above the RBC was collected and washed 2× with Hank's buffered salt solution with calcium and magnesium, 0.2% glucose, and 10 mM HEPES, pH 7.2 (HBSS++) by centrifugation at 400×g for 10 min. Pellets were suspended in 8 mL 0.9% NaCl, and RBC lysed by the addition of 24 mL water for 40 sec, followed by the addition of 8 mL of 3.6% NaCl. After centrifugation at 200×g for 8 min, RBC ghosts were aspirated from the top of the PMN pellet, and cells washed with HBSS++. PMN adherence to protein substrates: 96 well tissue culture plates were coated with 10% pooled human serum (North American Biological,;, Miami, Fla.) in phosphate buffered saline (PBS) for 1 hr at 37° C., followed by washing 3× with PBS. Test compounds were prepared in DMSO as 100× stocks. PMN (4×10^6 /mL) were preincubated with test compounds for 10 min at 37° C. in serum-coated wells. Tumor necrosis factor (TNF-α) was added to 3 nM or platelet aggregation facor (PAF) to 1 μM, and adherence was carried out for 20 or 10 min, respectively. Nonadherent cells were aspirated, and wells washed two times with warm PBS with calcium and magnesium, with blotting of the inverted plate following each aspiration. Adherent PMN were quantitated using a BCA protein assay (Pierce, Rockford, Ill.).

For assay [3], the system named is neutrophils. Briefly: Elastase release from neutrophils, PAF. The format is cell-based. The conditions noted are these: Homo sapiens, Neutrophil; PAF 20 nM, cytochalasin b; read-out: IC50 to inhibit elastase release, PAF/ER.
Description: as §1
Elastase release. Neutrophils (5×10^6 /ml in HBSS) were preincubated for 5 min at 37° C. with cytochalasin b (5 μg/ml). Experiments were performed in microtubes (96 per rack) to which were added the cell suspension, test compound (50 nM-500 μM), and one of several activators (fMLP, 200 nM, C5a, 24 nM; PAF, 20nM). After incubation (30 min, 37° C.) the tubes were centrifuged (1 min, 1500 rpm) and the supernatants assayed for elastase activity according to the following protocol:
Specifically, 10 μl of purified human neutrophil elastase standard or of sample was added to 70 μl or 0.1M Tris pH 7.5, 0.5% Brij detergent and 10 μl or 5 mM elastase substrate (methoxysuccinyl-alanyl-alanyl-prolyl-valyl paranitroanilide) in a 96 well microliter plate. Plates were indubated for 60 min at 37° C. and absorbance was read at 410 nm on a microplate reader. Elastase activity was quantitated relative to standards.

In assay [4] the test system is neutrophil accumulation in thioglycollate-induced peritonitis. Briefly: Neutrophil accumulation in thioglycollate-induced peritonitis in the mouse. The format is in vivo, Male CF-1 mice. The conditions noted are these: for ED50: iv. How it is done: Two in vivo models of inflammation were used to assess the anti-inflammatory activity of compounds of the invention. One model measures neutrophil accumulation in thioglycollate-induced peritonitis in mice. The other measures neutrophil accumulation in the cutaneous Reverse Passive Arthus reaction in rats. These assays were carried out as follows.
Male CF-1 mice were pretreated with individual test compound (4-6 mice per compound) 10 min prior to thioglycollate treatment. Test compounds at various doses, solubilized in 1% Tween, pH 9.0, were injected into the tail vein. Thioglycollate (4% Brewer's thioglycollate broth in water) was administered intraperitoneally in 1 ml volume. Peritoneal lavages, performed 4 hrs following thioglycollate treatment, involved injecting 5 ml of Dulbecco's phosphate buffered saline with 0.1% bovine serum albumin and 10 units/ml heparin into the peritoneal cavity, massaging the peritoneum, and then removing fluid through peritoneal aspiration. The lavage fluid was centrifuged, red blood cells lysed with water, cells were resuspended in Hank's balanced salt solution, and leukocytes were counted with a modified Neubauer hemacytometer. Leukocyte preparations (cytospin slides) were differentially stained with a Giemsa stain. Neutrophil accumulation expressed as a percent of control was calculated after the subtraction of baseline neutrophils from all treatement groups (see Table III).

[5] abbreviates: Neutrophil, mouse, i.v., thioglycollate-induced peritonitis, 4 hrs, read-out: ED50.

Regarding `O=C(O)c1ccc(/C=C/c2ccccc2-c2ccccc2)cc1` [NPC 18730, 4-[2-(biphenyl)-E-ethenyl]benzoic acid], the IC50 in the assay on neutrophils [1] turned out to be 3 µM; in assay [2] it was 2.4 µM; with neutrophils [3] it was 3.23 µM. Besides, the ED50 (as a rule, the midpoint of the dose-response relation) in assay [4] (4 h) was 0.8 mg/kg. The “% Inhibition of neutrophil accumulation” value in assay [4] (mouse, i.v., 0.3 mg/kg, 4 hrs) turned out to be 16%; in assay [4] (mouse, i.v., 1 mg/kg, 4 hrs), 20%; in assay [4] (mouse, i.v., 3 mg/kg, 4 hrs) it was 67%; in assay [4] (mouse, i.v., 10 mg/kg, 4 hrs), 37%; in assay [4] (mouse, i.v., 30 mg/kg, 4 hrs) it was 48%.

For the compound `O=C(O)c1ccc(C=Cc2ccccc2Oc2ccccc2)cc1` [NPC 18801, 2'-phenoxy-4-stilbenecarboxylic acid], the IC50 was determined as 0.52 µM in the assay on neutrophils [1], 0.86 µM in assay [2] and 0.6 µM in the assay on neutrophils [3]. The ED50 in assay [4] (setting [5]) was below 10 mg/kg. Moreover, the “% Inhibition of neutrophil accumulation” value is listed as 36% in assay [4] (mouse, i.v., 3 mg/kg, 4 hrs); 65% in assay [4] (mouse, i.v., 10 mg/kg, 4 hrs); 65% in assay [4] (mouse, i.v., 30 mg/kg, 4 hrs).

On to `O=C(O)c1ccc(/C=C/c2ccccc2-c2ccc(Cl)c(Cl)c2)cc1` [NPC 18818, 4-{2-[2-(3,4-dichlorophenyl)phenyl]-(E)-ethenyl] benzoic acid], for which the IC50 stood at 0.3 µM in the assay with neutrophils [1], 0.41 µM in assay [2] and 0.81 µM in the assay on neutrophils [3]. In addition, the ED50 in assay [4] (setting [5]) is below 30 mg/kg. For the same compound, the “% Inhibition of neutrophil accumulation” value in assay [4] (mouse, i.v., 3 mg/kg, 4 hrs) was 35%; in assay [4] (mouse, i.v., 10 mg/kg, 4 hrs) it was 34%; in assay [4] (mouse, i.v., 30 mg/kg, 4 hrs), 52%.
